{"source": "ChEMBL document CHEMBL1255230", "about": "“Chemical inhibitor of nonapoptotic cell death with therapeutic potential for ischemic brain injury” (Nat Chem Biol, 2005)", "key": {"Jurkat [1]": {"system": "Jurkat", "experiment": "Effect on cell cycle in human Jurkat cells deficient in FADD assessed as cells in G2/M phase relative to control", "assay_type": "functional"}, "NIH3T3 [2]": {"system": "NIH3T3", "experiment": "Effect on morphology of mitochondria in mouse 3T3 cells after 24 hrs by anti-cytochrome c immunofluorescence in presence of TNFalpha and zVAD-fmk", "assay_type": "functional, cell-based"}, "[3]": {"experiment": "Inhibition of death receptor signaling mediated necrotic cell death in human HL60 cells assessed as cell viability in presence of TNFalpha and zVAD.fmk", "assay_type": "cell-based", "conditions": "HL-60"}, "Jurkat [4]": {"system": "Jurkat", "experiment": "Inhibition of necrosis in human Jurkat cells deficient in FADD assessed as inhibition of early loss of plasma membrane integrity by bright field microscopy in presence of TNFalpha", "assay_type": "functional, cell-based"}, "Jurkat [5]": {"system": "Jurkat", "experiment": "Effect on cell cycle in human Jurkat cells deficient in FADD assessed as cells in G1 phase in presence of TNFalpha relative to control", "assay_type": "functional"}, "Jurkat [6]": {"system": "Jurkat", "experiment": "Inhibition of necrosis in human Jurkat cells deficient in FADD assessed as inhibition of nuclear condensation by bright field microscopy in presence of TNFalpha", "assay_type": "functional, cell-based"}, "NIH3T3 [7]": {"system": "NIH3T3", "experiment": "Effect on morphology of golgi apparatus in mouse 3T3 cells after 24 hrs by anti-giantin immunofluorescence in presence of TNFalpha and zVAD-fmk", "assay_type": "functional, cell-based"}, "Jurkat [8]": {"system": "Jurkat", "experiment": "Antiproliferative activity against human Jurkat cells", "assay_type": "functional, cell-based"}, "Jurkat [9]": {"system": "Jurkat", "experiment": "Effect on ATP level in human Jurkat cells", "assay_type": "functional, cell-based"}, "[10]": {"experiment": "Inhibition of death receptor signaling mediated necroptotic cell death in mouse 3T3 cells assessed as cell viability after 24 hrs by ATP based viability assay in presence of TNFalpha and zVAD-fmk", "conditions": "NIH3T3"}, "Jurkat [11]": {"system": "Jurkat", "experiment": "Effect on apoptosis in human Jurkat cell assessed as plasma membrane blebbing by electron microscopy in presence of FasL and CHX", "assay_type": "functional, cell-based"}, "[12]": {"experiment": "Inhibition of death receptor signaling mediated necroptotic cell death in human Jurkat cell deficient in FADD assessed as cell viability after 30 hrs by ATP based viability assay in presence of TNFalpha"}, "[13]": {"experiment": "Inhibition of death receptor signaling mediated necroptotic cell death in human Jurkat cells deficient in FADD and expressing FKBP12-based dimerization domain assessed as cell viability after 48 hrs by FACS in presence of AP1510"}, "Jurkat [14]": {"system": "Jurkat", "experiment": "increase in intracellular ROS level in human Jurkat cells", "assay_type": "functional, cell-based"}, "Jurkat [15]": {"system": "Jurkat", "experiment": "Effect on changes in cell size in human Jurkat cells", "assay_type": "functional, cell-based"}, "Jurkat [16]": {"system": "Jurkat", "experiment": "Effect on cell cycle in human Jurkat cells deficient in FADD assessed as cells in sub-G1 phase in presence of TNFalpha relative to control", "assay_type": "functional"}, "[17]": {"experiment": "Inhibition of death receptor signaling mediated necroptotic cell death in human Jurkat cells deficient in FADD assessed as decreased levels of PE-conjugated LC3-II (autophagy marker) after 24 hrs by Western blot method in presence of TNFalpha", "assay_type": "cell-based"}, "NIH3T3 [18]": {"system": "NIH3T3", "experiment": "Inhibition of apoptosis in mouse 3T3 cells assessed as cell viability after 24 hrs by ATP based viability assay in presence of TNFalpha and CHX", "assay_type": "functional"}, "[19]": {"experiment": "Inhibition of death receptor signaling mediated necroptotic cell death in human Jurkat cells deficient in FADD and expressing RIP kinase domain assessed as cell viability after 48 hrs by FACS in presence of AP1510", "assay_type": "cell-based"}, "Jurkat [20]": {"system": "Jurkat", "experiment": "Effect on apoptosis in human Jurkat cell assessed as chromatin marginalization by electron microscopy in presence of FasL and CHX", "assay_type": "functional, cell-based"}, "Jurkat [21]": {"system": "Jurkat", "experiment": "Effect on mitochondrial membrane potential in human Jurkat cells", "assay_type": "functional, cell-based"}, "Jurkat [22]": {"system": "Jurkat", "experiment": "Effect on cell cycle in human Jurkat cells deficient in FADD assessed as cells in S phase in presence of TNFalpha relative to control", "assay_type": "functional"}, "Jurkat [23]": {"system": "Jurkat", "experiment": "Inhibition of necrosis in human Jurkat cells deficient in FADD assessed as inhibition of organelle swelling by bright field microscopy in presence of TNFalpha", "assay_type": "functional, cell-based"}, "[24]": {"experiment": "Inhibition of death receptor signaling mediated necroptotic cell death in mouse 3T3 cells assessed as decreased levels of PE-conjugated autophagy marker LC3-II after 24 hrs by Western blot method in presence of FasL and zVAD-fmk", "assay_type": "cell-based", "conditions": "NIH3T3"}, "[25]": {"experiment": "Inhibition of death receptor signaling mediated necrotic cell death in mouse L929 cells assessed as cell viability after 24 hrs by ATP based viability assay in presence of TNFalpha"}, "[26]": {"experiment": "Inhibition of death receptor signaling mediated necroptotic cell death in human Jurkat cells deficient in FADD and expressing FKBP12-based dimerization domain assessed as cell viability after 48 hrs by FACS in presence of AP1510, zVAD-fmk"}, "Jurkat [27]": {"system": "Jurkat", "experiment": "Inhibition of necrosis in human Jurkat cells assessed as nuclear condensation by bright field microscopy in presence of FasL, CHX and zVAD-fmk", "assay_type": "functional, cell-based"}, "Jurkat [28]": {"system": "Jurkat", "experiment": "Effect on cell cycle in human Jurkat cells deficient in FADD assessed as cells in sub-G1 phase relative to control", "assay_type": "functional"}, "Jurkat [29]": {"system": "Jurkat", "experiment": "Effect on changes in cell shape in human Jurkat cells", "assay_type": "functional, cell-based"}, "[30]": {"experiment": "Inhibition of death receptor signaling mediated apoptosis in human Jurkat cell assessed as cytoprotection after 30 hrs by in presence of FasL, CHX and zVAD.fmk", "assay_type": "cell-based"}, "[31]": {"experiment": "Inhibition of death receptor signaling mediated necrotic cell death in mouse 3T3 cells assessed as cell viability after 24 hrs by ATP based viability assay in presence of TNFalpha and zVAD.fmk", "conditions": "NIH3T3"}, "U-937": {"system": "U-937", "experiment": "Inhibition of oxidative stress induced necrosis in human U937 cells after 24 hrs in presence of menadione", "assay_type": "functional, cell-based"}, "Jurkat [32]": {"system": "Jurkat", "experiment": "Effect on gene expression in human Jurkat cells after 16 hrs by Agilent DNA chip analysis", "assay_type": "functional, cell-based"}, "NIH3T3 [33]": {"system": "NIH3T3", "experiment": "Effect on microtubule cytoskeleton in mouse 3T3 cells after 24 hrs by anti-tubulin immunofluorescence method in presence of TNFalpha and zVAD-fmk", "assay_type": "functional, cell-based"}, "[34]": {"experiment": "Inhibition of death receptor signaling mediated necroptotic cell death in human Jurkat cell deficient in FADD assessed as inhibition of plasma membrane permeability after 24 hrs by in presence of TNFalpha", "assay_type": "cell-based"}}, "note": "Calls of active or inactive are those of the source. No cut-off for these calls is given here."}
{"smiles": "CN1C(=O)C(Cc2c[nH]c3ccccc23)NC1=S", "note": "(stereo unspecified) [NECROSTATIN]", "values": [{"measurement": "Activity", "setting": "Jurkat [1]", "result": 13.5, "unit": "%"}, {"measurement": "Activity", "setting": "NIH3T3 [2]", "result": "inactive"}, {"measurement": "inhibition", "setting": "[3]", "result": "Active"}, {"measurement": "inhibition", "setting": "Jurkat [4]", "result": "Active"}, {"measurement": "Activity", "setting": "Jurkat [5]", "result": 43.1, "unit": "%"}, {"measurement": "inhibition", "setting": "Jurkat [6]", "result": "Active"}, {"measurement": "Activity", "setting": "NIH3T3 [7]", "result": "inactive"}, {"measurement": "Activity", "setting": "Jurkat [8]", "result": "inactive"}, {"measurement": "Activity", "setting": "Jurkat [9]", "result": "inactive"}, {"measurement": "inhibition", "setting": "[10]", "result": "Active"}, {"measurement": "Activity", "setting": "Jurkat [11]", "result": "inactive"}, {"measurement": "IC50", "setting": "[12]", "result": 494, "unit": "nM"}, {"measurement": "inhibition", "setting": "[12]", "result": "Active"}, {"measurement": "inhibition", "setting": "[13]", "result": "Active"}, {"measurement": "Activity", "setting": "Jurkat [14]", "result": "inactive"}, {"measurement": "Activity", "setting": "Jurkat [15]", "result": "inactive"}, {"measurement": "Activity", "setting": "Jurkat [16]", "result": 0.7, "unit": "%"}, {"measurement": "inhibition", "setting": "[17]", "result": "Active"}, {"measurement": "inhibition", "setting": "NIH3T3 [18]", "result": "inactive"}, {"measurement": "inhibition", "setting": "[19]", "result": "Active"}, {"measurement": "Activity", "setting": "Jurkat [20]", "result": "inactive"}, {"measurement": "Activity", "setting": "Jurkat [21]", "result": "inactive"}, {"measurement": "Activity", "setting": "Jurkat [22]", "result": 44.8, "unit": "%"}, {"measurement": "inhibition", "setting": "Jurkat [23]", "result": "Active"}, {"measurement": "inhibition", "setting": "[24]", "result": "Active"}, {"measurement": "inhibition", "setting": "[25]", "result": "Active"}, {"measurement": "inhibition", "setting": "[26]", "result": "Active"}, {"measurement": "inhibition", "setting": "Jurkat [27]", "result": "Active"}, {"measurement": "Activity", "setting": "Jurkat [28]", "result": 0.7, "unit": "%"}, {"measurement": "Activity", "setting": "Jurkat [29]", "result": "inactive"}, {"measurement": "inhibition", "setting": "[30]", "result": "inactive"}, {"measurement": "inhibition", "setting": "[31]", "result": "Active"}, {"measurement": "inhibition", "setting": "U-937", "result": "inactive"}, {"measurement": "Activity", "setting": "Jurkat [32]", "result": "inactive"}, {"measurement": "Activity", "setting": "NIH3T3 [33]", "result": "inactive"}, {"measurement": "inhibition", "setting": "[34]", "result": "Active"}]}
